Experimental data: US20250042880A1 (UNIVERSITY OF KENTUCKY RESEARCH FOUNDATION, priority 2021, published 2025)
pIC50: −log10 of the molar value.

Experiments:
LS174T xenografts = LS174T xenografts in SCID mice; format: in vivo, mouse; details: BAY-876 3 mg/kg/day, DBI-1 40 mg/kg/day
Procedure: In vivo evaluation of anti-cancer activity in LS174T xenografts—The mouse studies were conducted with the approval of the University of Kentucky Institutional Animal Care and Use Committee (2020-3531). All methods were carried out in compliance with the relevant guidelines and regulations according to protocols. The LS174T cells in exponential growth phase were trypsinized and resuspended in 50% Matrigel (Corning, Glendale, Arizona). Cells (1.2×10^6) were subcutaneously injected on the lower flanks of severe combined immunodeficient mice. The tumor volumes were calculated based on the formula Length×width^2/2. When tumors reached an average volume of 100 mm^3, the mice were divided into control and treatment groups (3 male and 3 female mice/group, two tumors on each mouse). After tumors were established, BAY-876 was given to the mice by gavage feeding to the BAY-876 group at the dose of 3 mg/kg/day. DBI-1 was daily intraperitoneally (i.p.) administered to the DBI-1 group at dose of 40 mg/kg mouse body weight. Mice in the combination treatment group were administered both oral BAY-876 at the dose of 3 mg/kg/day and i.p. DBI-1 at dose of 40 mg/kg mouse body weight. Tumors and mouse weights were measured every three days and the experiment was stopped at day 12. Tumors were isolated and fixed in 10% neutral buffered formalin. Tumor sections were analyzed with H&E and Ki-67 staining at Markey Cancer Center's Biospecimen Procurement and Translational Pathology Shared Resource Facility (BPTP SRF).

LS174T cells = assay: Cell proliferation inhibition assay, LS174T; format: cell-based; details: for combinational effect with BAY-876 on proliferation of LS174T cells: in combination with BAY-876
Procedure: (§1) Cell proliferation inhibition assay-Cell proliferation inhibition assay was performed as previously reported (48). All compounds to be tested were dissolved at 10 mM in DMSO. The cells were seeded into 12-well plates at a density of 40,000 cells per well in 1 mL of culture medium and were cultured overnight at 37° C. Either 1 μL of the compounds or the vehicle control (DMSO) was added to the cells. After 5 days, the medium was removed, and 200 μL of 0.25% trypsin was added. The cells were resuspended in 800 μL phosphate-buffered saline (PBS) and counted with Vi-CELL XR 2.03 (Beckman Coulter, Inc. USA). The ratio R of the number of viable cells in the compound-treated group to the number of viable cells in the DMSO-treated group was called relative growth rate, and the growth inhibition was calculated as (1−R)*100.
(§2) Cell proliferation inhibition assay was conducted according to a previous report (48). The cells were split into 12-well plates at a density of 40,000 cells per well in 1 mL of culture medium and were cultured overnight at 37° C. Either 1 μL of the compounds dissolved at 10 mmol/L in DMSO or the vehicle control (DMSO) was added to the cells. After 5 days, removed the medium, and 200 μL of 0.25% trypsin was added. The cells were resuspended in phosphate-buffered saline (PBS) and counted with Vi-CELL XR 2.03 (Beckman Coulter, Inc. USA). The ratio R of the number of viable cells in the compound treatment group to the number of viable cells in the DMSO treatment group was defined as the relative growth rate, and the growth inhibition rate was calculated as (1−R)*100.

Pt2377 cells = assay: Cell proliferation inhibition assay, Pt2377; format: cell-based; details: 120 h; 5 days, viable cells counted
Procedure: as §1

OCV-8 Cell = assay: OCV-8 cell inhibition; format: cell-based; details: read-out: OCV-8 Cell Inhibiton; for inhibition at 0.3 µM: 300 nM
HCT116 cells = assay: Cell proliferation inhibition assay, HCT116; format: cell-based; details: for inhibition at 1 µM / inhibition at 3 µM / inhibition at 10 µM: Homo sapiens; for inhibition at 1 µM: HCT-116, 1 μM; for inhibition at 3 µM: HCT-116, 3 μM; for inhibition at 10 µM: HCT-116, 10 μM
Procedure: as §1, §2

[1] = cited from earlier work

| Compound | inhibition at 3 µM (HCT116 cells) | inhibition at 10 µM (HCT116 cells) | also measured |
| --- | --- | --- | --- |
| CN(C)CCN(C)CCCCOc1ccc2c(=O)c(-c3ccc(Br)cc3)coc2c1 [DBI-1, 3-(4-Bromophenyl)-7-(4-((2-(dimethylamino)ethyl)(methyl)amino)butoxy)-4H-chromen-4-one] |  |  | toxicity based on mice body weight growth rate (LS174T xenografts): No significant toxicity; pIC50 (LS174T cells; Homo sapiens, LS174T, 120 h, 5 days, viable cells counted): 5.92; pIC50 (Pt2377 cells): 5.85; inhibition at 0.3 µM (OCV-8 Cell): 57%; inhibition at 1 µM (OCV-8 Cell): 96%; inhibition at 1 µM (HCT116 cells): 45% |
| Cc1nc(-c2nc(-c3ccc(OC(F)(F)F)cc3)no2)nn1Cc1cccc(N2CCC(S(C)(=O)=O)CC2)c1 [IACS-010759] |  |  | tolerability in preclinical models ([1]; 25 mg/kg/day): not tolerated; antitumor effect in preclinical models ([1]; 5-10 mg/kg/day): tumor regression |
| CN(C)C(=N)N=C(N)N [Metformin] |  |  | combinational effect with BAY-876 on proliferation of LS174T cells (LS174T cells): synergistical effects with BAY-876 |
| C=C(C)[C@H]1Cc2c(ccc3c2O[C@@H]2COc4cc(OC)c(OC)cc4[C@@H]2C3=O)O1 [Rotenone] |  |  | combinational effect with BAY-876 on proliferation of LS174T cells (LS174T cells): synergistical effects with BAY-876 |
| O=c1c(-c2ccc(F)cc2)coc2cc(OCCN3CCNCC3)ccc12 [WZY-1-31] | 0% | 89% |  |
| O=c1c(-c2ccc(F)cc2)coc2cc(OCCN3CCN(CCO)CC3)ccc12 [WZY-1-33] | 0% | 35% |  |
| O=c1c(-c2ccc(Cl)cc2)coc2cc(OCCN3CCNCC3)ccc12 [WZY-1-43] | 92% | 93% | inhibition at 0.3 µM (OCV-8 Cell): 31%; inhibition at 1 µM (OCV-8 Cell): 97% |
| O=c1c(-c2ccc(Br)cc2)coc2cc(OCCN3CCNCC3)ccc12 [WZY-1-45] | 94% | 93% | inhibition at 0.3 µM (OCV-8 Cell): 43%; inhibition at 1 µM (OCV-8 Cell): 97% |
| O=c1c(-c2ccc(Cl)cc2)coc2cc(OCCN3CCN(CCO)CC3)ccc12 [WZY-1-47] | 50% | 94% |  |
| O=c1c(-c2ccc(Br)cc2)coc2cc(OCCN3CCN(CCO)CC3)ccc12 [WZY-1-49] | 80% | 94% |  |
| COc1ccc(-c2coc3cc(OCCN4CCNCC4)ccc3c2=O)cc1 [WZY-1-59] | 0% | 92% |  |
| COc1ccc(-c2coc3cc(OCCN4CCN(CCO)CC4)ccc3c2=O)cc1 [WZY-1-61] | 0% | 52% |  |
| O=c1c(-c2ccccc2F)coc2cc(OCCN3CCN(CCO)CC3)ccc12 [WZY-1-67] | 0% | 0% |  |
| O=c1c(-c2ccc(Br)cc2)coc2cc(OCCN3CCOCC3)ccc12 [WZY-1-77] | 61.4% |  |  |
| O=c1c(-c2ccc(Br)cc2)coc2cc(OCCCCN3CCNCC3)ccc12 [WZY-1-91] | 99.9% |  | inhibition at 0.3 µM (OCV-8 Cell): 34%; inhibition at 1 µM (OCV-8 Cell): 94% |
| O=c1c(-c2ccc(Br)cc2)coc2cc(OCCCCN3CCN(CCO)CC3)ccc12 [WZY-1-95] | 99% |  | inhibition at 0.3 µM (OCV-8 Cell): 30%; inhibition at 1 µM (OCV-8 Cell): 93% |
| O=c1c(-c2ccc(Br)cc2)coc2cc(OCCCCCCCCN3CCN(CCO)CC3)ccc12 [WZY-1-97] | 99.7% |  | inhibition at 0.3 µM (OCV-8 Cell): 39%; inhibition at 1 µM (OCV-8 Cell): 96% |

| Compound | inhibition at 3 µM (HCT116 cells) | inhibition at 10 µM (HCT116 cells) | also measured |
| --- | --- | --- | --- |
| O=c1c(-c2ccc(Br)cc2)coc2cc(OCCCCCCCCN3CCOCC3)ccc12 [WZY-1-101] | 50.6% |  |  |
| O=c1c(-c2ccc(Br)cc2)coc2cc(OCCCCCCCCN3CCSCC3)ccc12 [WZY-1-103] | 42.6% |  |  |
| O=c1c(-c2ccc(Br)cc2)coc2cc(OCCCCN3CCOCC3)ccc12 [WZY-1-113] | 62.7% |  |  |
| O=c1c(-c2ccc(Cl)cc2Cl)coc2cc(OCCN3CCNCC3)ccc12 [WZY-1-123] | 67.1% |  |  |
| O=c1c(-c2ccc(Cl)cc2Cl)coc2cc(OCCN3CCN(CCO)CC3)ccc12 [WZY-1-125] | 43.1% |  |  |
| O=c1c(-c2ccccc2Cl)coc2cc(OCCN3CCN(CCO)CC3)ccc12 [WZY-1-129] | 13% |  |  |
| O=c1c(-c2ccc(Br)cc2)coc2cc(OCCn3ccnc3)ccc12 [WZY-1-131] | 22% |  |  |
| O=c1c(-c2ccc(Br)cc2)coc2cc(OCCCCn3ccnc3)ccc12 [WZY-1-139] | 58.7% |  |  |
| O=c1c(-c2ccc(Br)cc2)coc2cc(OCCCCn3cccn3)ccc12 [WZY-1-141] | 63.9% |  |  |
| O=c1c(-c2ccc(Br)cc2)coc2cc(OCCCCCCCCn3ccnc3)ccc12 [WZY-1-143] | 61.2% |  |  |
| O=c1c(-c2ccc(Cl)cc2)coc2cc(OCCN3CCOCC3)ccc12 [WZY-1-149] | 51.4% |  |  |
| O=c1c(-c2ccc(Br)cc2)coc2cc(OCCCCN3CCOCC3)ccc12 [WZY-1-155] |  |  | HCT116 Cells Proliferation Inhibition % (HCT116 cells; 3 μM): 65.3% |
| CN(C)CCN(C)CCOc1ccc2c(=O)c(-c3ccc(Br)cc3)coc2c1 [WZY-1-193] |  |  | inhibition at 0.3 µM (OCV-8 Cell): 57%; inhibition at 1 µM (OCV-8 Cell): 87%; inhibition at 1 µM (HCT116 cells): 26% |
| O=c1c(-c2ccc(F)c(F)c2)coc2cc(OCCN3CCNCC3)ccc12 [XDQ-1-9] | 34% | 94% |  |
| O=c1c(-c2ccc(F)c(F)c2)coc2cc(OCCN3CCN(CCO)CC3)ccc12 [XDQ-1-13] | 10% | 61% |  |
| O=c1c(-c2ccc(Cl)c(Cl)c2)coc2cc(OCCN3CCN(CCO)CC3)ccc12 [XDQ-1-19] | 95% | 94% | inhibition at 0.3 µM (OCV-8 Cell): 60%; inhibition at 1 µM (OCV-8 Cell): 99% |
| O=c1c(-c2ccc(Cl)c(Cl)c2)coc2cc(OCCN3CCNCC3)ccc12 [XDQ-1-25] | 93% | 92.5% | inhibition at 0.3 µM (OCV-8 Cell): 72%; inhibition at 1 µM (OCV-8 Cell): 99% |
